Test results from article PMC4132841 (Neuron, 2012).
Values joined by “and” are separate entries in the source; they are usually repeats but may differ in a detail not shown here. Equal values may be shown once. Read-outs that look alike come from different tables or passages of the source.

Tests used:
GluK2b(Q) and GluK3 = GluK2b(Q) and GluK3 (Rattus norvegicus, UniProt P42264); test: Glutamate-activated currents in HEK293 cells cotransfected with GluK2b; assay type: cell-based; details: 1 μM UBP310; n = 6
[1] = target: heteromeric GluK2/GluK3 receptors (Rattus norvegicus, UniProt P42260+P42264); test: Glutamate currents of heteromeric GluK2b; assay type: cell-based
GluK3/K2S2 = GluK3/K2S2 (Rattus norvegicus, UniProt P42260+P42264, A594P/A717V/A732S/D593N/D790G/E602D/E705D/F704Y/G600D/I638V/I746V/I767V/I794M/I818V/I844L/INS713R/K688E/K714R/K820N/L736F/L837F/M618V/N721S/N810S/P715Q/S620A/S803N/T729V/V569I/Y745F); test: Whole-cell glutamate currents of S2 chimera; assay type: cell-based; details: 100 μM zinc; 10 mM glutamate, 100 ms; n = 5
GluK2b and GluK3(D730A) = GluK2b and GluK3(D730A) (Rattus norvegicus, UniProt P42260+P42264, D761A); test: Glutamate currents of heteromeric mutant receptors, 1 μM UBP310 present; assay type: cell-based; details: 100 μM zinc, 10 mM glutamate
GluK2(Y490H) = GluK2(Y490H) (Rattus norvegicus, UniProt P42260, Y521H); test: Glutamate currents of point mutant; assay type: cell-based; details: 100 μM zinc; 10 mM glutamate
GluK3(H762A) = GluK3(H762A) (Rattus norvegicus, UniProt P42264, H793A); test: Glutamate currents of point mutant, outside-out patches; assay type: cell-based; details: 100 μM zinc; 10 mM glutamate; n = 5
GluK3(H492A) = GluK3(H492A) (Rattus norvegicus, UniProt P42264, H523A); test: Glutamate currents of point mutant; assay type: cell-based; details: 100 μM zinc; 10 mM glutamate
[2] = target: GluK2 receptors where the ATD was excised (Rattus norvegicus, UniProt P42260); test: Whole-cell glutamate currents of ATD-deleted receptor; assay type: cell-based; details: 100 μM zinc; 10 mM glutamate, 100 ms; n = 4
GluK2/K3S2 = test: Whole-cell glutamate currents of S2 chimera; assay type: cell-based, rat; details: 100 μM zinc; 10 mM glutamate, 100 ms; n = 5
GluK3(ERLK) = GluK3(ERLK) (Rattus norvegicus, UniProt P42264, I781L/K527E/K698R/Q785K); test: Glutamate currents of desensitization mutant GluK3; assay type: cell-based; details: 100 μM zinc
GluN1/GluN2B = details: ref Paoletti et al., 1997; cited from earlier work
GluK3(D730N) = GluK3(D730N) (Rattus norvegicus, UniProt P42264, D761N); test: Glutamate currents of point mutant, outside-out patches; assay type: cell-based; details: 100 μM zinc; 10 mM glutamate
[3] = tested on: extracellular domain of GluK3 and the transmembrane and intracellular segments of GluK2; test: Whole-cell glutamate currents of chimeric receptor; assay type: cell-based, rat; details: 100 μM zinc; 10 mM glutamate, 100 ms; n = 5
GluK1-GluK2 = details: read-out: IC50 of zinc inhibition; ref Mott et al., 2008; cited from earlier work
[4] = target: GluK3 subunits deleted of their ATD (Rattus norvegicus, UniProt P42264); test: Whole-cell glutamate currents of ATD-deleted receptor; assay type: cell-based; details: 100 μM zinc; 10 mM glutamate, 100 ms; n = 5
GluK3(H492Y) = GluK3(H492Y) (Rattus norvegicus, UniProt P42264, H523Y); test: Glutamate currents of point mutant; assay type: cell-based; details: 100 μM zinc; 10 mM glutamate
GluK3(D759G) = GluK3(D759G) (Rattus norvegicus, UniProt P42264, D790G); test: Glutamate currents of point mutant, outside-out patches; assay type: cell-based; details: 100 μM zinc; 10 mM glutamate; n = 5
GluK2 [5] = target: T1, GluK2 (Rattus norvegicus, UniProt P42260); assay type: cell-based; details: 100 μM zinc; control 3.4 ± 0.1 ms; n = 5; p = 0.20
GluK3 [6] = target: T2, GluK3 (Rattus norvegicus, UniProt P42264); assay type: cell-based; details: for effect of zinc on GluK3 currents: 100 μM zinc
GluK2(G758D) = GluK2(G758D) (Rattus norvegicus, UniProt P42260, G789D); test: Glutamate currents of point mutant, outside-out patches; assay type: cell-based; details: 100 μM zinc; 10 mM glutamate; n = 6
GluN1/GluN2A receptors = details: ref Paoletti et al., 1997; cited from earlier work
GluK3(H492C, L753C) = GluK3(H492C, L753C) (Rattus norvegicus, UniProt P42264, H523C/L784C); test: Glutamate currents of desensitization mutant GluK3; assay type: cell-based; details: 100 μM zinc; 10 mM glutamate, 100 ms
[7] = tested on: transmembrane and intracellular segments of GluK3 and the extracellular domain of GluK2; test: Whole-cell glutamate currents of chimeric receptor; assay type: cell-based, rat; details: 100 μM zinc; 10 mM glutamate, 100 ms; n = 4
GluK3 [8] = target: T2, GluK3; assay type: cell-based
GluK2b(D729A) and GluK3 = GluK2b(D729A) and GluK3 (Rattus norvegicus, UniProt P42260+P42264, D760A); test: Glutamate currents of heteromeric mutant receptors; assay type: cell-based; details: 10 mM glutamate
GluK2 [9] = target: T1, GluK2; assay type: cell-based; details: 10 mM glutamate
[10] = tested on: KARs containing GluK4 or GluK5 subunits; details: read-out: IC50 of zinc inhibition; ref Mott et al., 2008; cited from earlier work
GluK3(D730A) = GluK3(D730A) (Rattus norvegicus, UniProt P42264, D761A); test: Glutamate currents of point mutant, outside-out patches; assay type: cell-based; details: 100 μM zinc; 10 mM glutamate; n = 6
[11] = combined potentiation/inhibition Hill equations

T2 sequence (P42264 32-919): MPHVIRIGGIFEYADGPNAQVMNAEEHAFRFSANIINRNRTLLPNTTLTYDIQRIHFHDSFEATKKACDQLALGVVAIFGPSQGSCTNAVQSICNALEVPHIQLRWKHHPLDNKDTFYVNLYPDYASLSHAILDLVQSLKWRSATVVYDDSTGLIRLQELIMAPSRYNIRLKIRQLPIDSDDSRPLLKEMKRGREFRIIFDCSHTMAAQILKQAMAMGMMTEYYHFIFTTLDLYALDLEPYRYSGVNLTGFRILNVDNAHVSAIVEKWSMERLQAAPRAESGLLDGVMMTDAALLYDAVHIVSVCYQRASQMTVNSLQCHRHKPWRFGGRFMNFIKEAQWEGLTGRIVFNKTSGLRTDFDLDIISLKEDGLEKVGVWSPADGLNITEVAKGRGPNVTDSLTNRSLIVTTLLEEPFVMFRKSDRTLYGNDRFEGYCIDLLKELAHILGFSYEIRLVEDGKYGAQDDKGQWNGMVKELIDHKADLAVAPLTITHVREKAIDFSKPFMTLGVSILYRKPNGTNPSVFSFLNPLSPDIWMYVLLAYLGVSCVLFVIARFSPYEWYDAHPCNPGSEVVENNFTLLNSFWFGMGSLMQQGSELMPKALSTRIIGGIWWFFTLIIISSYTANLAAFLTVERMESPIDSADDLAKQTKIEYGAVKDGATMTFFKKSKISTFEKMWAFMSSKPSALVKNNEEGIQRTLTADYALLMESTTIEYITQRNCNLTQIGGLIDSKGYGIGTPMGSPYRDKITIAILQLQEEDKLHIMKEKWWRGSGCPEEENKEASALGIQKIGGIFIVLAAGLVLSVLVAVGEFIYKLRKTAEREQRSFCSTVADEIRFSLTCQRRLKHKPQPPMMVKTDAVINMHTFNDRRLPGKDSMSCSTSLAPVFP
Chain of GluK3(ERLK) (P42264 32-919 K527E/K698R/I781L/Q785K): as the sequence (P42264 32-919) above, with K496E, K667R, I750L, Q754K counted along it
Chain of GluK3(H492Y) (P42264 32-919 H523Y): as the sequence (P42264 32-919) above, with H492Y counted along it
Chain of GluK2b(Q) and GluK3 (P42264 32-919): as the sequence (P42264 32-919) above
Chain of GluK3(H492A) (P42264 32-919 H523A): as the sequence (P42264 32-919) above, with H492A counted along it
Chain of GluK3(D730A) (P42264 32-919 D761A): as the sequence (P42264 32-919) above, with D730A counted along it
Chain of GluK3(D730N) (P42264 32-919 D761N): as the sequence (P42264 32-919) above, with D730N counted along it
Chain of GluK3(H492C, L753C) (P42264 32-919 H523C/L784C): as the sequence (P42264 32-919) above, with H492C, L753C counted along it
Chain of GluK3(D759G) (P42264 32-919 D790G): as the sequence (P42264 32-919) above, with D759G counted along it
Chain of GluK3 subunits deleted of their ATD (P42264 376-919, stated change not applied): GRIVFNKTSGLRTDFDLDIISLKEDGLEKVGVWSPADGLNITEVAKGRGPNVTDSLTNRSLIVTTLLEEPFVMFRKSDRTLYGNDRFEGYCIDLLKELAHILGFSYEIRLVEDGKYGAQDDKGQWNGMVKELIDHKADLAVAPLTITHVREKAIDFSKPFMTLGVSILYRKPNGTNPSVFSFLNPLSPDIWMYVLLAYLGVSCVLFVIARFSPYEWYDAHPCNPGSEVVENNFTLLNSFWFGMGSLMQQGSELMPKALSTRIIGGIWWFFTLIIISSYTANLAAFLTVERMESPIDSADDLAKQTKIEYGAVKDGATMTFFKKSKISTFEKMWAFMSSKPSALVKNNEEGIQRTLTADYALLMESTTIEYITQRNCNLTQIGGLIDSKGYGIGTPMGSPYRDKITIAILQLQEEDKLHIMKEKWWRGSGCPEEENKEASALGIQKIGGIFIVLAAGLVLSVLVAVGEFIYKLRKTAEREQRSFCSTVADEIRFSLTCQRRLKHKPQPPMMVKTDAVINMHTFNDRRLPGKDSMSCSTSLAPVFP
Chain of GluK3(H762A) (P42264 32-919 H793A): as the sequence (P42264 32-919) above, with H762A counted along it

In the case of `Cc1cn(C[C@H](N)C(=O)O)c(=O)n(Cc2ccsc2C(=O)O)c1=O` [UBP310], the “inhibition of glutamate-activated currents” value (GluK2b(Q) and GluK3) is reported as 55%.

For `[Cl-].[Cl-].[Zn+2]` [zinc, ZnCl2], the “UBP310-resistant current with zinc, % of control” value ([1]; 100 μM zinc, 10 mM glutamate, 1 μM UBP310, n = 18) was 157% ± 7%, the “maximal potentiation by zinc, % of control” value ([1]; 10 mM glutamate, Hill fit) was 286% and the “nH of zinc potentiation of GluK2/GluK3 currents” value ([1]; 10 mM glutamate, Hill fit) was 0.6 and 0.6 ± 0.4. For the same molecule, the “inhibition of GluK2/GluK3 currents by high zinc” value ([1]; zinc concentrations up to 1 mM) was “no inhibition”, the “current with zinc (inhibited), %” value (GluK3/K2S2) was 54% ± 6% and the “effect of zinc on glutamate currents” value (GluK2b and GluK3(D730A)) was “potentiation”. For the same molecule, the “effect of zinc on glutamate currents” value (GluK2(Y490H)) was “inhibited”, the “peak amplitude with zinc, %” value (GluK3(H762A)) was 45% ± 6% and the “effect of zinc on glutamate currents” value (GluK3(H492A)) was “still potentiated”. The “current with zinc (inhibition), %” value [2] was 44% ± 11%, the “current with zinc (facilitated), %” value (GluK2/K3S2) was 197% ± 9% and the “effect of zinc on desensitization rate” value (GluK3(ERLK)) was “no change”. The “effect of zinc on glutamate currents” value (GluK3(ERLK); 10 mM glutamate, 100 ms) was “inhibited rather than potentiated”, the “affinity of zinc inhibition of NMDAR function” value (GluN1/GluN2B) was “low micromolar” and the “effect of zinc on glutamate currents” value (GluK3(D730N)) was “retained zinc potentiation”. The “current amplitude with zinc, % of control amplitude” value (“current amplitude with zinc, %” below) [3] was 175% ± 9%, the IC50 (GluK1-GluK2) was ~70 µM and the “current with zinc (potentiation), %” value [4] was 186% ± 13%. The “effect of zinc on glutamate currents” value (GluK3(H492Y)) was “still potentiated”, the “current with zinc (inhibited), %” value (GluK3(D759G)) was 32% ± 9% and the “τdes (current decay) with zinc” value (GluK2 [5]) was 3.7 ± 0.1 ms. The “current amplitude with zinc, %” value (GluK3 [6]; 100 μM zinc preapplied, 10 mM glutamate, 100 ms, whole-cell, n = 17) was 193% ± 38%, the “effect of zinc on GluK3 currents” value (GluK3 [6]; pH 6.8) was “inhibited” and the “effect of zinc on GluK3 currents” value (GluK3 [6]; pH 8.3) was “potentiated”. The “zinc concentrations that clearly inhibit currents” value (GluK3 [6]; WT GluK3 receptors) was “above 300 μM”, the “maximal potentiation of GluK3 currents by zinc” value (GluK3 [6]; [11]) was 475% ± 47% and the “nH of zinc potentiation of GluK3 currents” value (GluK3 [6]; [11]) was 1.82 ± 0.95. For the same molecule, the “zinc concentrations that potentiate glutamate currents” value (GluK3 [6]; homomeric and heteromeric KARs containing GluK3) was 10 to 100 µM, the “effect of zinc on GluK3-mediated currents” value (GluK3 [6]; simultaneous application of zinc and glutamate, data not shown) was “does not potentiate” and the “current amplitude with zinc, %” value (GluK2(G758D)) was 177% ± 7%. The “affinity of zinc inhibition of NMDAR function” value (GluN1/GluN2A receptors) was “low nanomolar”, the “effect of zinc on glutamate currents” value (GluK3(H492C, L753C)) was “inhibited” and the “current with zinc (inhibited), %” value [7] was 40% ± 8%. For the same molecule, the “τdes (current decay) with zinc” value (GluK3 [8]; 100 μM zinc, 10 mM glutamate, 100 ms, control 5.0 ± 0.2 ms, n = 8) was 9.8 ± 0.4 ms, the “time for half-recovery from desensitization with zinc” value (GluK3 [8]; 100 μM zinc, absence of zinc 902 ± 1.1 ms, n = 5) was 460 ± 1.2 ms and the “deactivation kinetics with zinc” value (GluK3 [8]; 1 ms pulses of 10 mM glutamate, control 1.5 ± 0.05 ms, n = 4) was 2.3 ± 0.1 ms. The “current amplitude with zinc, %” value (GluK3 [8]; 1 ms pulses of 10 mM glutamate, n = 4) was 191% ± 22%, the “effect of zinc on glutamate currents” value (GluK2b(D729A) and GluK3) was “did not potentiate” and the “Hill coefficient (nH) of zinc inhibition of GluK2 currents” value (GluK2 [9]) was 1.1 and 1.1 ± 0.1. The IC50 [10] was 1 to 2 µM and the “current amplitude with zinc, %” value (GluK3(D730A)) was 33% ± 2%.
